Assay results reported in patent US9427479B2, “Tubulysin derivatives” (MedImmune LLC, priority 2014, dated 2016).
pIC50: −log10 of the molar value.

Columns and labels:
Format in all cases: cell-based
[1] = system: DU145; assay: In vitro proliferation assay (CellTiter-Glo), DU145; details: Homo sapiens, DU-145; DU145 cells; cultured 72 to 144 hours; CellTiter-Glo cell viability
Description: A panel of human cancer cell lines (DU 145, NCI-N87, and MDA-MB-361) obtained from the American Type Tissue Collection (ATCC) (P.O. Box 1549, Manassa, Va. 20108 (USA)) were used to determine the relative cytotoxicity of tubulysin compounds of the invention. The cells were plated in culture media at a density of 2,000 to 5,000 per well of tissue-culture-treated 96-well plates in a volume of 80 μl and allowed to adhere overnight. A 5× concentration of each compound tested was prepared by diluting the test articles in culture medium. Twenty microliters of each test article was added to cells in duplicate or triplicate such that the final dose curve ranged from 4 μg/ml down to 61 pg/ml in a stepwise 1:4 serial dilution series. The treated cells were cultured at 37° C./5% CO2 for 72 to 144 hours. The CellTiter-Glo Luminescent Viability Assay from Promega was used to determine relative cytotoxicity. Briefly, 100 μl of CellTiter-Glo reagent was added to each well, allowed to incubate for 10 minutes at room temperature with mild shaking and then the […] was read using a Perkin Elmer EnVision luminometer. The percent cell viability was calculated by the following formula: (average luminescence of treated samples/average luminescence of control (untreated) samples)×100. IC50 values were determined using logistic non-linear regression analysis with GraphPad Prism software. Not all compounds were assayed against all cell lines.

[2] = system: HCT116; assay: In vitro proliferation assay (CellTiter-Glo), HCT116; details: Homo sapiens, HCT-116; HCT116 cells; cultured 72 to 144 hours; CellTiter-Glo cell viability
[3] = system: MB231; assay: In vitro proliferation assay (CellTiter-Glo), MB231; details: Homo sapiens; MB231 cells; cultured 72 to 144 hours; CellTiter-Glo cell viability

| Compound | pIC50 [1] | pIC50 [2] | pIC50 [3] |
| --- | --- | --- | --- |
| CC[C@H](C)[C@H](NC(=O)[C@H]1C[C@H](C)CCN1C)C(=O)N(CC)[C@H](C[C@@H](OC(C)=O)c1nc(C(=O)N[C@@H](Cc2ccc(N)cc2)C[C@H](C)C(=O)O)cs1)C(C)C [Compound 1, (2S,4R)-4-(2-((1R,3R)-1-acetoxy-3-((2S,3S)-2-((2R,4R)-1,4-dimethylpiperidine-2-carboxamido)-N-ethyl-3-methylpentanamido)-4-methylpentyl)thiazole-4-carboxamido)-5-(4-aminophenyl)-2-methylpentanoic acid] | 9.70 | 9.22 | 8.60 |
| CC[C@H](C)[C@H](NC(=O)C1(CC)CCCCN1C)C(=O)N(CC)[C@H](C[C@@H](OC(C)=O)c1nc(C(=O)N[C@@H](Cc2ccc(N)cc2)C[C@H](C)C(=O)O)cs1)C(C)C (stereo partly drawn) [Compound 2, (2S,4R)-4-(2-((1R,3R)-1-acetoxy-3-((2S,3S)—N-ethyl-2-(2-ethyl-1-methylpiperidine-2-carboxamido)-3-methylpentanamido)-4-methylpentyl)thiazole-4-carboxamido)-5-(4-aminophenyl)-2-methylpentanoic acid] | 9.30 |  |  |
| CC[C@H](C)[C@H](NC(=O)[C@@]1(C)CCCCN1C)C(=O)N(CC)[C@H](C[C@@H](OC(C)=O)c1nc(C(=O)N[C@@H](Cc2ccc(N)cc2)C[C@H](C)C(=O)O)cs1)C(C)C [Compound 3, (2S,4R)-4-(2-((1R,3R)-1-acetoxy-3-((2S,3S)-2-((R)-1,2-dimethylpiperidine-2-carboxamido)-N-ethyl-3-methylpentanamido)-4-methylpentyl)thiazole-4-carboxamido)-5-(4-aminophenyl)-2-methylpentanoic acid] | 9.70 |  |  |
| CC[C@H](C)[C@H](NC(=O)[C@H]1CC(C)(C)CCN1C)C(=O)N(C)[C@H](C[C@@H](OC(C)=O)c1nc(C(=O)N[C@@H](Cc2ccccc2)C[C@H](C)C(=O)O)cs1)C(C)C [Compound 4, (2S,4R)-4-(2-((1R,3R)-1-acetoxy-3-((2S,3S)—N,3-dimethyl-2-((R)-1,4,4-trimethylpiperidine-2-carboxamido)pentanamido)-4-methylpentyl)thiazole-4-carboxamido)-2-methyl-5-phenylpentanoic acid] | 8.89 | 8.74 | 8.41 |
| CC[C@H](C)[C@H](NC(=O)[C@H]1C[C@H](C)CCN1C)C(=O)N(C)[C@H](C[C@@H](OC(C)=O)c1nc(C(=O)N[C@@H](Cc2ccccc2)C[C@H](C)C(=O)O)cs1)C(C)C [Compound 5, (2S,4R)-4-(2-((1R,3R)-1-acetoxy-3-((2S,3S)-2-((2R,4R)-1,4-dimethylpiperidine-2-carboxamido)-N,3-dimethylpentanamido)-4-methylpentyl)thiazole-4-carboxamido)-2-methyl-5-phenylpentanoic acid] | 9.05 | 9.30 | 8.47 |
| CC[C@H](C)[C@H](NC(=O)[C@H]1C[C@H](C)CCN1C)C(=O)N(C)[C@H](C[C@@H](OC(C)=O)c1nc(C(=O)N[C@@H](Cc2ccc(N)cc2)C[C@H](C)C(=O)O)cs1)C(C)C [Compound 6, (2S,4R)-4-(2-((1R,3R)-1-acetoxy-3-((2S,3S)-2-((2R,4R)-1,4-dimethylpiperidine-2-carboxamido)-N,3-dimethylpentanamido)-4-methylpentyl)thiazole-4-carboxamido)-5-(4-aminophenyl)-2-methylpentanoic acid] | 8.40 | 8.72 | 8.18 |
